One data set has as its system Hepatitis C virus. In words: Antiviral activity against Hepatitis C virus subtype 1b replicon infected in human HuH7 cells. The data set is classed as functional, cell-based, Hepacivirus hominis. Particulars: genotype 1b, Huh-7.
Data set [1] in a line: Cytotoxicity against human BJ cells after 3 days by MTT assay. It counts as cell-based. For orientation: Tetrazolium dyes change colour on reduction, which living cells bring about.
The nature of data set [2]: Cytotoxicity against human MRC5 cells after 3 days by MTT assay. It counts as cell-based.
For the next data set, the system named is CCRF-CEM. In words: Cytotoxicity against human CCRF-CEM cells after 3 days by MTT assay. The data set is classed as functional, cell-based. The settings on record: 72 h.
Data set [3] in a line: Cytotoxicity against human CEM/DNR cells after 3 days by MTT assay. The data set is classed as functional, cell-based. The settings on record: 72 h.
Another data set has as its system K562. In words: Cytotoxicity against human K562 cells after 3 days by MTT assay. The data set is classed as functional, cell-based. Particulars: K562, 72 h.
Data set [4] can be described thus: Cytotoxicity against human K562-TAX cells after 3 days by MTT assay. The data set is classed as functional, cell-based. Particulars: 72 h.
The next data set deals with A549. In words: Cytotoxicity against human A549 cells after 3 days by MTT assay. It counts as functional, cell-based. The settings on record: A549, 72 h.
Data set [5] concerns HCT-116. In words: Cytotoxicity against human HCT116 cells after 3 days by MTT assay. The data set is classed as functional, cell-based. Particulars: HCT-116, 72 h.
Data set [6] concerns HCT-116. In words: Cytotoxicity against p53 deficient human HCT116 cells after 3 days by MTT assay. It counts as functional, cell-based. Particulars: HCT-116, 72 h.
The nature of data set [7]: Cytotoxicity against human HuH7 cells. The data set is classed as cell-based, Huh-7.
The next data set deals with dengue virus type 2. In words: Antiviral activity against DENV2 infected in African green monkey Vero cells. It counts as functional, organism-based.
Data set [8] can be described thus: Cytotoxicity against African green monkey Vero cells. The data set is classed as cell-based. The settings on record: chlorocebus sabaeus.
Data set [9] in a line: Selectivity index, ratio of CC50 for human HuH7 cells to EC50 for Hepatitis C virus subtype 1b replicon infected in human HuH7 cells. The data set is classed as toxicity, cell-based, Huh-7. The settings on record: read-out: Ratio CC50/EC50. (In general: In antiviral work, replicon cells carry a viral genome segment that copies itself.)

By EC50 is commonly meant the midpoint of the concentration-response curve. The term CC50 denotes the concentration giving 50% cytotoxicity. The term IC50 denotes the midpoint of a concentration-inhibition curve. Take `C[C@]1(CO)O[C@@H](n2cc(I)c3c(N)ncnc32)[C@H](O)[C@@H]1O`: the EC50 stood at 3.75 µM with Hepatitis C virus and 5.55 µM in the data set on dengue virus type 2. For the same compound, the CC50 at 72 h in [1] was determined as 42.4 µM; in [2], 40.8 µM. Besides, the IC50 is 10.2 µM in the data set on CCRF-CEM; 27.9 µM in [3]; 20.4 µM in the data set with K562; 9.46 µM in data set [4]; 5.92 µM in the data set on A549; 5.25 µM in the data set with HCT-116 [5]. The compound also gave an IC50 in the data set with HCT-116 [6] of 5.87 µM. Also, the CC50 in data set [7] was 27.1 µM; in data set [8], 8.08 µM. Also, in [9], the selectivity ratio is 7.2.

As for `C[C@]1(CO)O[C@@H](n2cc(-c3ccco3)c3c(N)ncnc32)[C@H](O)[C@@H]1O`, the figures for the EC50 in the data set with Hepatitis C virus and in the data set on dengue virus type 2 were 20 µM and over 50 µM, respectively. The CC50 is over 44 µM in data set [7] and over 50 µM in [8].

As to `C[C@]1(CO)O[C@@H](n2cc(-c3cccs3)c3c(N)ncnc32)[C@H](O)[C@@H]1O`, the EC50 was 17.9 µM with Hepatitis C virus and over 50 µM with dengue virus type 2. Besides, the CC50 is over 44 µM in [7] and over 50 µM in [8].

For the compound `C[C@]1(CO)O[C@@H](n2cc(-c3ccsc3)c3c(N)ncnc32)[C@H](O)[C@@H]1O`, the EC50 with Hepatitis C virus is 40.6 µM; in the data set on dengue virus type 2, over 50 µM. The results for the CC50 in data set [7] and in data set [8] were over 44 µM and over 50 µM, respectively.

For the compound `C[C@]1(CO)O[C@@H](n2cc(-c3cc4ccccc4o3)c3c(N)ncnc32)[C@H](O)[C@@H]1O`, the EC50 turned out to be 4.48 µM in the data set with Hepatitis C virus and 10.1 µM in the data set on dengue virus type 2. Further, the figures for the CC50 at 72 h in data set [1] and in data set [2] were 104 µM and 83.7 µM, respectively. Besides, the IC50 with CCRF-CEM amounted to 16.6 µM; in data set [3], 8.94 µM; with K562, 9.64 µM; in [4], 8.82 µM; in the data set with A549, 7.13 µM; in the data set with HCT-116 [5], 9.75 µM. Further, in the data set with HCT-116 [6], the IC50 is 10.7 µM. Also, the CC50 in [7] came out at 31.1 µM; in data set [8] it was 27 µM.

On to `C#Cc1cn([C@@H]2O[C@](C)(CO)[C@@H](O)[C@H]2O)c2ncnc(N)c12`, for which the EC50 in the data set with Hepatitis C virus is 6.27 µM; with dengue virus type 2 it was 4.59 µM. Moreover, the CC50 at 72 h in data set [1] was found to be 126 µM; in data set [2], 125 µM. For the same compound, the 50% inhibitory concentration (IC50) in the data set on CCRF-CEM was 30.3 µM; in [3], 38.4 µM; in the data set with K562 it was 31.1 µM; in data set [4] it was 27.4 µM; with A549 it was 9.55 µM; in the data set on HCT-116 [5], 8.79 µM. In addition, in the data set with HCT-116 [6], inhibition was half-maximal at 10.2 µM (IC50). Besides, the CC50 in data set [7] was found to be 32.2 µM; in [8], 13.4 µM.

For the compound `C[C@]1(CO)O[C@@H](n2ccc3c(-c4cc5ccccc5o4)ncnc32)[C@H](O)[C@@H]1O`, the EC50 with Hepatitis C virus was 7.62 µM; in the data set with dengue virus type 2, over 50 µM. Moreover, the results for the CC50 in data set [7] and in data set [8] were over 44 µM and over 50 µM, respectively.

Consider `CCOC(=O)[C@H](C)NP(=O)(OC[C@@]1(C)O[C@@H](n2cc(-c3ccco3)c3c(N)ncnc32)[C@H](O)[C@@H]1O)Oc1ccccc1` (stereo not given in full), for which the EC50 in the data set with Hepatitis C virus is over 44 µM. This compound showed a CC50 in data set [7] of 20.8 µM.

For `CCOC(=O)[C@H](C)NP(=O)(OC[C@@]1(C)O[C@@H](n2cc(-c3cccs3)c3c(N)ncnc32)[C@H](O)[C@@H]1O)Oc1ccccc1` (stereo not given in full), the response in the data set with Hepatitis C virus was half-maximal at 23.2 µM (EC50). The compound further had a CC50 in data set [7] of 13 µM.

As for `CCOC(=O)[C@H](C)NP(=O)(OC[C@@]1(C)O[C@@H](n2cc(-c3ccccc3)c3c(N)ncnc32)[C@H](O)[C@@H]1O)Oc1ccccc1` (stereo not given in full), the EC50 with Hepatitis C virus worked out at 18 µM. Further, in data set [7], half-maximal cytotoxicity (CC50) was put at 9.1 µM.

`CCOC(=O)[C@H](C)NP(=O)(OC[C@@]1(C)O[C@@H](n2ccc3c(-c4ccco4)ncnc32)[C@H](O)[C@@H]1O)Oc1ccccc1` (stereo not given in full): the EC50 was 17.6 µM with Hepatitis C virus and over 50 µM in the data set with dengue virus type 2. For the same compound, the CC50 in data set [7] was 27.9 µM; in data set [8], over 50 µM.

In the data set on Hepatitis C virus, `CCOC(=O)[C@H](C)NP(=O)(OC[C@@]1(C)O[C@@H](n2ccc3c(-c4cccs4)ncnc32)[C@H](O)[C@@H]1O)Oc1ccccc1` (stereo not given in full) returned an EC50 of 3.32 µM. Moreover, the CC50 at 72 h amounted to 83.1 µM in data set [1] and 106 µM in [2]. In addition, the IC50 is 12.3 µM with CCRF-CEM; 43.1 µM in [3]; 22.9 µM in the data set with K562; 33.6 µM in data set [4]; 22.2 µM in the data set on A549; 19.4 µM in the data set on HCT-116 [5]. In the data set on HCT-116 [6], this compound yielded an IC50 of 22 µM. The CC50 in data set [7] came out at 3.64 µM.

As to `CCOC(=O)[C@H](C)NP(=O)(OC[C@@]1(C)O[C@@H](n2ccc3c(-c4ccccc4)ncnc32)[C@H](O)[C@@H]1O)Oc1ccccc1` (stereo not given in full), the EC50 in the data set on Hepatitis C virus is 16.5 µM; with dengue virus type 2, over 50 µM. Besides, the CC50 at 72 h was 75.3 µM in data set [1] and 108 µM in data set [2]. For the same compound, the IC50 in the data set on CCRF-CEM was 17.4 µM; in data set [3] it was 43.6 µM; in the data set on K562, 29.9 µM; in data set [4], 35.4 µM; in the data set on A549, 25.9 µM; in the data set with HCT-116 [5], 22.2 µM. Further, the IC50 in the data set on HCT-116 [6] is 22.8 µM. Also, the CC50 is over 44 µM in data set [7] and over 50 µM in data set [8].

The values above are taken from ChEMBL document CHEMBL3627619, “Synthesis and biological profiling of 6- or 7-(het)aryl-7-deazapurine 4'-C-methylribonucleosides” (Bioorg Med Chem, 2015).
